Data reported in ChEMBL document CHEMBL1152605, “Novel 7H-pyrrolo[2,3-d]pyrimidine derivatives as potent and orally active STAT6 inhibitors” (Bioorg Med Chem, 2009).

Experiments:
[1] = target: T1, Signal transducer and activator of transcription 6 (Homo sapiens, UniProt P42226); test: Inhibition of STAT6 in IL4-stimulated human FW4 reporter cells by luciferase assay
T1 sequence (P42226 whole entry): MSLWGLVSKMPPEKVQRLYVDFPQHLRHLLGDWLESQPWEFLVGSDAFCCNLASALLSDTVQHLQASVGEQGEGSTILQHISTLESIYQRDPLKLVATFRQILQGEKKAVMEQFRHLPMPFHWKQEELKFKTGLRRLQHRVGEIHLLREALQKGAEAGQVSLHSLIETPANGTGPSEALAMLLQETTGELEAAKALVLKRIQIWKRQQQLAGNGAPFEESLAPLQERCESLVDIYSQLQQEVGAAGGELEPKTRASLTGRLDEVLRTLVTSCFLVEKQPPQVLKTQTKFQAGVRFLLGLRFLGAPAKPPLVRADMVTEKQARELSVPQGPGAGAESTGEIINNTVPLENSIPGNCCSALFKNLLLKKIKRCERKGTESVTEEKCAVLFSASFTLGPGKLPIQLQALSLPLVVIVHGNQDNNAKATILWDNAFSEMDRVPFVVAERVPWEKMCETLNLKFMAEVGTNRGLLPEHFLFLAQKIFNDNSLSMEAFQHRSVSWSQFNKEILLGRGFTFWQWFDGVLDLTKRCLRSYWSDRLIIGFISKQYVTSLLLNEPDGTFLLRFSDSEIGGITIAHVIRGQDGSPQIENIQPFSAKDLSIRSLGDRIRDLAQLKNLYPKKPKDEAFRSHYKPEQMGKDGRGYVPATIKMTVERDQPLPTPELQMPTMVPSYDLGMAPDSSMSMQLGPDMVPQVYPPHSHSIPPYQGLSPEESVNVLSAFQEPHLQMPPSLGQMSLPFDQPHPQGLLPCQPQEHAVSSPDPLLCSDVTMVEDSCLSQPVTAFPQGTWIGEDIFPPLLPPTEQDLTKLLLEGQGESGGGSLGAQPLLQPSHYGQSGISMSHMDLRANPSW

CYP3A4 [2] = target: T2, CYP3A4 (Homo sapiens, UniProt P08684); test: Inhibition of CYP3A4 in human liver microsomes assessed as residual activity at 5 uM; format: ADME, Microsome; conditions: read-out: Activity
T2 sequence (P08684 whole entry): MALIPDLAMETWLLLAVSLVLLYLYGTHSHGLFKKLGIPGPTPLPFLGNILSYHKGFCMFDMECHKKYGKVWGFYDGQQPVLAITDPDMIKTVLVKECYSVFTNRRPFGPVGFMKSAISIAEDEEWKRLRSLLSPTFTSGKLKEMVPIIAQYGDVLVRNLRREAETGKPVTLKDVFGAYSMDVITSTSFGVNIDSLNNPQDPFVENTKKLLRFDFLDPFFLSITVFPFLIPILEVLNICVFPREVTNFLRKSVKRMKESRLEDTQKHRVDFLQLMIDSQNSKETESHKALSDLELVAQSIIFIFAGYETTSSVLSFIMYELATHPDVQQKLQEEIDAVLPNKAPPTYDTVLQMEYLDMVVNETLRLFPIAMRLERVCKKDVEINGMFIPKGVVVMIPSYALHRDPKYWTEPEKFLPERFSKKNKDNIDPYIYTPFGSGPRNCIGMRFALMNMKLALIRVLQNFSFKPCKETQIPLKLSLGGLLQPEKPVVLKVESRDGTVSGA

CYP3A4 [3] = target: T2, CYP3A4; test: Inhibition of CYP3A4 in human liver microsomes assessed as residual activity at 5 uM after 30 mins; format: ADME, Microsome; conditions: read-out: Activity
T-cell = test: Inhibition of IL4 production in C57BL/6 mouse T cell after 16 hrs by T cell differentiation assay; format: functional, cell-based; conditions: C57BL/6, T-cell
Mus musculus = species on record: Mus musculus; test: Antiasthmatic activity in OVA-induced pulmonary eosinophila BALB/c mouse model assessed as suppression of eosinophil infiltration in lung treated 30 mins before and 24, 48 hrs after OVA challenge; format: functional, organism-based

SMILES	IC50 [1] [nM]	activity at 5 µM (CYP3A4 [2]) [%]	activity at 0.5 h, 5 µM (CYP3A4 [3]) [%]	IC50 (T-cell) [nM]	Activity (Mus musculus)
Fc1ccc(Cn2ccc3cnc(Nc4ccc(N5CCOCC5)cc4)nc32)cc1	4100	82	43		
NCCN1CCN(c2ccc(Nc3ncc4ccn(Cc5cc(F)cc(F)c5)c4n3)cc2)CC1	34	65	105		
c1ccc(Cn2ccc3cnc(Nc4ccc(N5CCOCC5)cc4)nc32)cc1	400	88	34		
Fc1ccccc1Cn1ccc2cnc(Nc3ccc(N4CCOCC4)cc3)nc21	220	78	32		
Fc1cccc(Cn2ccc3cnc(Nc4ccc(N5CCOCC5)cc4)nc32)c1	37	97	56		
Fc1cc(F)cc(Cn2ccc3cnc(Nc4ccc(N5CCOCC5)cc4)nc32)c1	120	80	37		
c1ccc(CN2CCc3cnc(Nc4ccc(N5CCOCC5)cc4)nc32)cc1	8300				

Now those with a lower IC50 [1], led by results:

IC50 [1] [nM]	activity at 5 µM (CYP3A4 [2]) [%]	activity at 0.5 h, 5 µM (CYP3A4 [3]) [%]	IC50 (T-cell) [nM]	SMILES	Activity (Mus musculus)
0.7	100	31		NC(=O)c1cnc(Nc2ccc(N3CCOCC3)cc2)nc1NCc1c(F)ccc(F)c1F	
6.5				NC(=O)c1cnc(Nc2ccc(N3CCOCC3)cc2)nc1NCc1ccccc1	
12	74	95		Fc1cc(F)cc(Cn2ccc3cnc(Nc4ccc(N5CCNCC5)cc4)nc32)c1	
4.7	85	77		CNC(=O)CN1CCN(c2ccc(Nc3ncc4ccn(Cc5cc(F)cc(F)c5)c4n3)cc2)CC1	
1.9	104	85	2.4	NC(=O)CN1CCN(c2ccc(Nc3ncc4ccn(Cc5cc(F)cc(F)c5)c4n3)cc2)CC1	Dose-dependent effect
26	100	98		O=C(O)CN1CCN(c2ccc(Nc3ncc4ccn(Cc5cc(F)cc(F)c5)c4n3)cc2)CC1	
3.2	90	88		CN1CCN(c2ccc(Nc3ncc4ccn(Cc5cc(F)cc(F)c5)c4n3)cc2)CC1	
5.6	86	86		OCCN1CCN(c2ccc(Nc3ncc4ccn(Cc5cc(F)cc(F)c5)c4n3)cc2)CC1	
